Measurements from PubChem BioAssay (NCI).
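The compound was tested at five concentrations on cells cultured in 96-well plates, with a 48-hour exposure period. Abbreviation: GI50, concentration required for 50% inhibition of growth. TGI marks complete inhibition of growth.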

Tests used:
Assay in all cases: NCI-60 cell line screen, 48 h
[1] = system: A549 NSCLC
[2] = system: EKVX NSCLC
[3] = system: IGROV1 ovarian
[4] = system: KM12 colon
[5] = system: MOLT-4 leukemia
[6] = system: NCI-H23 lung
[7] = system: RXF 393 renal
[8] = system: TK-10 renal
[9] = system: RPMI-8226 leukemia
[10] = system: SF-539 CNS

SMILES	TGI [1]	TGI [2]	TGI [3]	TGI [4]	TGI [5]	TGI [6]	TGI [7]	TGI [8]	GI50 [1]	GI50 [2]	GI50 [3]	GI50 [4]	GI50 [5]	GI50 [6]	GI50 [9]	TGI [9]	GI50 [7]	GI50 [10]	TGI [10]	GI50 [8]
O=C1c2ccccc2C(=O)c2c(Nc3ccc4c5c(cccc35)C(=O)c3ccccc3-4)cccc21	> 100 µM	> 100 µM	> 100 µM	> 100 µM	> 100 µM	> 100 µM	> 100 µM	> 100 µM												
O=c1ccc2nc(-c3ccccc3)nn(-c3ccccn3)c-2c1	> 100 µM	28.2 µM	45.4 µM	70.2 µM	6.21 µM	45.1 µM	3.3 µM	3.14 µM	38.4 µM	14.8 µM	14.1 µM	25.5 µM	1.79 µM	13.6 µM	5.32 µM	63.1 µM	1.79 µM	16.2 µM	30.8 µM	1.71 µM
N#CN=C(N)NC(=O)/C=C/C=C/c1ccc(Cl)cc1	> 100 µM		> 100 µM	> 100 µM	> 100 µM	> 100 µM	> 100 µM	> 100 µM								> 100 µM			50.4 µM	
CC(C)(C)N1C(C(=O)c2ccccc2)C1c1ccccc1 (stereo not drawn)	> 100 µM	> 100 µM	> 100 µM	> 100 µM	> 100 µM	> 100 µM	> 100 µM	> 100 µM								> 100 µM			> 100 µM	
CC(=O)OC(C)C1C2=C(C(=O)CC1(C)O)C(=O)c1c(ccc(-c3ccc4c(c3O)C(=O)C3=C(C4=O)C(C(C)OC(C)=O)C(C)(O)CC3=O)c1O)C2=O (stereo not drawn)	18.8 µM	26.1 µM	22.4 µM	10.6 µM	> 100 µM	3.07 µM	3.59 µM	5.41 µM								> 100 µM			3.54 µM	
N#CCCCC[N+]12CN3CN(CN(C3)C1)C2	> 100 µM	> 100 µM	> 100 µM	> 100 µM	> 100 µM	> 100 µM	> 100 µM	> 100 µM								> 100 µM			54 µM	
CC(C)(C)OC(=O)c1cnc(Cl)cn1	> 100 µM	64.3 µM	44.7 µM	> 100 µM	> 100 µM	55.4 µM		> 100 µM								> 100 µM			> 100 µM	
Nc1nc(N)c2c(n1)NC(=O)c1c(c3ccccc3n1Cc1ccc(Cl)cc1)C2	62.6 µM	> 100 µM	> 100 µM		72 µM	> 100 µM	33.4 µM	46.9 µM											44.8 µM	
CC(C)=CCNc1ncnc2nc[nH]c12	> 100 µM	> 100 µM	> 100 µM	> 100 µM	> 100 µM	> 100 µM	> 100 µM	> 100 µM								> 100 µM			> 100 µM	
COc1ccc(C[C@H](N)C(=O)NC2C(CO)OC(n3cnc4c(N(C)C)ncnc43)C2O)cc1 (stereo partly drawn)	2.55 µM	1.06 µM	2.66 µM	1.32 µM	0.412 µM	0.432 µM	0.73 µM									1.3 µM				
COC(=O)Nc1nc2cc(OC)c(OC)cc2c(=O)[nH]1	> 100 µM	> 100 µM	> 100 µM	> 100 µM	> 100 µM	> 100 µM		> 100 µM											> 100 µM	
N=C(c1ccc2ccccc2c1)c1ccccc1Cc1ccccc1	> 100 µM	> 100 µM	> 100 µM	> 100 µM	67.8 µM	> 100 µM	34.4 µM	> 100 µM								> 100 µM			> 100 µM	
CCOC(=O)C12CCC(=O)C=C1[C@@H](C)C(=O)CC2 (stereo partly drawn)		> 100 µM	> 100 µM	> 100 µM		> 100 µM	> 100 µM	> 100 µM								> 100 µM				
CSc1nc(Cl)c(Br)c(Sc2nc(N)nc3nc[nH]c23)n1	48.7 µM		28.2 µM	19 µM	18.9 µM	24 µM		20.9 µM								16.4 µM			11.2 µM	
NC(=O)C(N)=O	> 100 µM	> 100 µM		> 100 µM	> 100 µM	> 100 µM	> 100 µM	> 100 µM								> 100 µM			> 100 µM	
O=C(CSc1nc2ccccc2s1)c1sc2sc3ccccc3[n+]2c1[O-]	> 100 µM	> 100 µM	> 100 µM	> 100 µM	> 100 µM	> 100 µM	> 100 µM	> 100 µM								> 100 µM			> 100 µM	
CC(C)c1cc(CN(C)C)c(O)c(C(C)(C)C)c1	53.1 µM	64.4 µM	> 100 µM	46.2 µM	42.5 µM	> 100 µM	37.2 µM	> 100 µM								32.3 µM				
